This passage reports IC50 results from patent US20220177459A1, “AROMATIC AMINE COMPOUND AND USE THEREOF IN PREPARATION OF AR AND BRD4 DUAL INHIBITORS AND REGULATORS” (HINOVA PHARMACEUTICALS INC., priority 2019, published 2022).

One assay relates to LNCaP/AR cells. The assay can be described thus: Inhibition of proliferation of prostate cancer cells LNCaP/AR (CCK-8). The class given is cell-based. The conditions noted are these: 144 h, 6 days culture, CCK-8, OD 450 nm, read-out: IC50 (μM), inhibitory activity on prostate cancer cell LNCap/AR. On the procedure:
1. Biological determination of the inhibitory effect on the proliferation of prostate cancer cells LNCaP/AR
Cell culture medium: RIPM1640 media, 10% FBS, 1% Pen Strep;
(§1) 1) LNCaP/AR cells were subcultured in cell culture medium, and the cells in good growth condition were seeded in a 96-well plate, with 80 μL per well (i.e. 1000 cells per well), and cultured overnight in a 37° C., 5% CO2 cell incubator.
2) The drug was prepared with dimethylsulfoxide (DMSO) as a 10 mM stock solution.
(§2) Immediately before use, the stock solution was diluted 3 times with DMSO, and then diluted as a 3-fold gradient to obtain 9 concentration gradients. Then, the compound of each concentration was diluted 200 times with the culture media (to ensure that the DMSO concentration in the culture system was 0.1%), and two multiple holes were set for each concentration. 20 μL of the diluted compound was added to the cell culture well (with a final concentration of 10 μM, 3.3 μM, 1.1 μM . . . ), and then shook gently to mix. In addition, three negative control wells with only cells and three blank control wells with only culture medium were included (6 wells being each added with DMSO diluted 200 times with 20 μL culture medium).
(§3) 1) After culturing for 6 days, 10 μL of CCK-8 was added to each well and continued culturing for 1 hour in a 37° C., 5% CO2 cell incubator.
(§4) 2) The absorbance (OD value) was measured at 450 nm using a multifunctional microplate reader.
(§5) 3) The data were analyzed by the Dose-response-inhibition equation in the software GraphPad Prism5, and the IC50 value was obtained.

The test system of the next assay is VCaP cells. In words: Inhibition of proliferation of other prostate cancer cells: VCaP. It is filed as cell-based. The conditions noted are these: Homo sapiens, same method as LNCaP/AR. On the procedure:
as §1, §2, §3, §4, §5
(§6) 2. Biological determination of the inhibitory effect on the proliferation of other prostate cancer cells
(§7) The inhibitory activity of the compound according to the present invention on other drug-resistant prostate cancer cells was measured by the same method as described above, in which VCaP and 22RV1 cells were commercially available.

The next assay deals with 22RV1 cells. In words: Inhibition of proliferation of other prostate cancer cells: 22RV1. The class given is cell-based. The following applies: Homo sapiens, same method as LNCaP/AR. On the procedure:
as §1, §2, §3, §4, §5, §6, §7

The target of another assay is T1, BRD4 (D1+D2) protein (Homo sapiens, UniProt O60885).
T1 construct: purchased BPS 31044
The assay can be described thus: HTRF binding to BRD4 (D1+D2) protein. The conditions noted are these: BRD4(1,2), 2 h at room temperature, read-out: IC50 (μM), inhibitory activity on BRD4. The text has this: Homogeneous time-resolved fluorescence technique (HTRF) was used to detect the binding effect of compound to BRD4 (D1+D2) protein.
Experimental materials: • BRD4(1,2) (BPS, Cat. No. 31044), • I-CBP 112 (MCE, Cat. No. HY-19541), • (+)-JQ1 (BPS, Cat. No. 27402).
Using homogeneous time-resolved fluorescence method, the detection steps are as follows:
1. According to the layout of the detection plate, the test compound was gradiently diluted on the Echo plate, and the final dilution concentration of DMSO was 0.1%.
2. The compound or DMSO was transferred to the 384-well detection plate with the Echo automatic sampler.
3. Two-fold concentration of protein and peptide mixture was added to the detection plate.
4. Two-fold concentration of the detection mixture was added to the detection plate, and shook for 30 s.
5. Incubating for 2 h at room temperature.
6. The fluorescence signal was read on the Envision multifunctional microplate reader (excitation wavelength at 340 nm; emission wavelength at 615 nm and 665 nm).
1. The experimental data were entered into an Excel file, and equation (1) was used to calculate the inhibition rate:
Inh %=(Max−Signal)/(Max−Min)*100 Equation (1)
2. The obtained data were input into GraphPad software, and equation (2) was used to calculate the IC50 value.
Y=Bottom+(Top−Bottom)/(1+10^((LogIC50−X)*Hill Slope)) Equation (2)
wherein, Y axis is the inhibition rate, while X axis is the compound concentration.
For orientation: TR-FRET usually uses a lanthanide donor and a delayed reading to cut background.

For a further assay, the target named is T2, androgen receptor (AR) (Homo sapiens, UniProt P10275).
T2 construct: host or cells: HEK293
T2 sequence (P10275 1-920): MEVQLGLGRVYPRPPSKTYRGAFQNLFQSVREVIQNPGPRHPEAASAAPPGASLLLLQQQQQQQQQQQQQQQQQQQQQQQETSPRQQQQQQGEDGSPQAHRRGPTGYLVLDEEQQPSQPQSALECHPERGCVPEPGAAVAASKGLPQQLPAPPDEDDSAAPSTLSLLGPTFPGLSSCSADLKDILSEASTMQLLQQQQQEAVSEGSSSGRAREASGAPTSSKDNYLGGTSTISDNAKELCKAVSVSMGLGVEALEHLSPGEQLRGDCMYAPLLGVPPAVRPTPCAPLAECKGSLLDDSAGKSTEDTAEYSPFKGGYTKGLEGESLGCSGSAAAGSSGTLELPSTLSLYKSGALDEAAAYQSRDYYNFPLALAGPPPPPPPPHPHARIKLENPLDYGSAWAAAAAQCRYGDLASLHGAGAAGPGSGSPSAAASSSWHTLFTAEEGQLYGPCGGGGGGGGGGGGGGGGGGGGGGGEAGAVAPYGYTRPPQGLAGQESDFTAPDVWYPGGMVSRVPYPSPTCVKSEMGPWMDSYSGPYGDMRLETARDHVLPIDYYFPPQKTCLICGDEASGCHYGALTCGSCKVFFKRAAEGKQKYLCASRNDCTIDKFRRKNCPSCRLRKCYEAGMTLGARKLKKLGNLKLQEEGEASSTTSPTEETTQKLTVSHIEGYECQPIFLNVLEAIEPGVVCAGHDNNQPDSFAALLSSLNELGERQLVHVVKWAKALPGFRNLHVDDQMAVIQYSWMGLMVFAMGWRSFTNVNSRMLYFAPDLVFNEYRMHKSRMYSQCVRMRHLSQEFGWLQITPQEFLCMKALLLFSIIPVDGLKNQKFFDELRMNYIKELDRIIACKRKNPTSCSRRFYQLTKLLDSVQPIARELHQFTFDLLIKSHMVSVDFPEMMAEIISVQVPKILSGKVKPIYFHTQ
The assay can be described thus: Inhibitory activity on the function of androgen receptor (AR), luciferase reporter in transfected cells. The conditions noted are these: transfected with AR and pGL4.36, testosterone 2 nM, Steady-Glo. The class given is cell-based. On the procedure:
Experimental Example 2 the Inhibitory Activity of the Compound According to the Present Invention on the Function of Androgen Receptor (AR)
Androgen receptor clone (Origene, Cat. No. RC235415)
pGL4.36 vector (Promega, Cat. No. E1360)
1) The cell suspension was diluted with the culture medium for seeding cells to a concentration of 4.0×10^5 cells/ml, for plating and adding transfection reagents.
2) The diluted cell suspension was inoculated into a cell culture plate, with 100 μL per well, and the plate was placed in a cell incubator and cultured overnight.
3) The transfection reagent was prepared as 10 μL/well, and added into the cell culture plate after 15 min at room temperature, then the plate was placed in a cell incubator and cultured overnight.
4) The compound was diluted by a 3-fold gradient with TECAN sampler, to obtain 8 concentration gradients, and the final DMSO concentration was 0.25%. The diluted compound was cultured in a 37° C. incubator for 30 min.
5) 250 nL of testosterone at a final concentration of 2 nM was added to the control well with an […] sampler, placed in a cell incubator, and cultured overnight.
6) Steady-Glo was added at 100 μL/well to the cell culture plate, and then the plate was left at room temperature for 15 min, followed by reading on Envision.
The data were analyzed according to the formula % Effect=(Sample value−LC)/(HC−LC)*100, using XL-fit software (provided by Business Solutions Ltd., version number XL fit 5.0). The inhibition rate of each compound against androgen receptor (AR) was calculated, and the half-inhibitory concentration IC50 of each compound against androgen receptor (AR) was further calculated.
In general terms: In a reporter assay the amount or activity of a reporter protein is the signal.

Regarding `CCN(c1ccc(-n2ccnn2)c(Br)c1)c1cc(-c2c(C)noc2C)ccc1C` [Compound 45], the IC50 with LNCaP/AR cells was 0.82 µM; in the assay on VCaP cells, 0.75 µM; in the assay on 22RV1 cells it was 7.75 µM; on BRD4 (D1+D2) protein it was 1.9 µM; against androgen receptor (AR), 1.7 µM.

In the case of `CCN(c1ccc(-n2ccnc2)c(Cl)c1)c1cc(-c2c(C)noc2C)ccc1C` [Compound 30], the values for the IC50 in the assay with LNCaP/AR cells, in the assay with VCaP cells and in the assay with 22RV1 cells were 0.9 µM, 2.27 µM and more than 10 µM, respectively.

Turning to `CCN(c1ccc(-n2ccnc2)c(Br)c1)c1cc(-c2c(C)noc2C)ccc1C` [Compound 31, N-(3-bromo-4-(1H-imidazol-1-yl)phenyl)-5-(3,5-dimethylisoxazol-4-yl)-N-ethyl-2-methylaniline], the IC50 turned out to be 0.54 µM in the assay on LNCaP/AR cells; 1.35 µM in the assay with VCaP cells; 9.37 µM in the assay with 22RV1 cells; 6.3 µM at BRD4 (D1+D2) protein; 2.1 µM against androgen receptor (AR).

For the compound `CCN(c1ccc(F)c(-n2ccnc2)c1)c1cc(-c2c(C)noc2C)ccc1C` [Compound 83], the IC50 in the assay with VCaP cells was found to be 1.27 µM; in the assay on 22RV1 cells it was 5.2 µM; on BRD4 (D1+D2) protein, 6.7 µM; on androgen receptor (AR), 0.83 µM.

With `CCN(c1ccc(C(C)(C)C#N)cc1)c1cc(-c2c(C)noc2C)ccc1C` [Compound 110], the IC50 in the assay on LNCaP/AR cells is 0.93 µM; on androgen receptor (AR), 1.6 µM.

For `CCN(c1ccc(C#N)c(Cl)c1)c1cc(-c2c(C)nn(C)c2C)ccc1C` [Compound 2], the IC50 stood at 0.51 µM with LNCaP/AR cells, 0.78 µM in the assay with VCaP cells, 5.2 µM in the assay with 22RV1 cells and 0.78 µM against androgen receptor (AR).

On to `CCN(c1ccc(-n2ccnn2)cc1)c1cc(-c2c(C)noc2C)ccc1C` [Compound 33], for which the IC50 was 0.75 µM in the assay with LNCaP/AR cells, 0.88 µM in the assay on VCaP cells and 2.41 µM with 22RV1 cells.

Regarding `CCN(c1ccc(-n2ccnc2C)cc1)c1cc(-c2c(C)noc2C)ccc1C` [Compound 27], the IC50 in the assay on LNCaP/AR cells worked out at 0.38 µM; with VCaP cells it was 0.99 µM; in the assay on 22RV1 cells it was 3.77 µM; at BRD4 (D1+D2) protein it was 4.1 µM; at androgen receptor (AR), 0.89 µM.

With `CCN(c1ccc(C#N)c(Cl)c1)c1cc(-c2c(C)noc2C)ccc1C` [Compound 14], the IC50 with LNCaP/AR cells was 0.55 µM; on androgen receptor (AR), 1.5 µM.

Regarding `CCN(c1ccc(-n2ccnc2)c(C(F)(F)F)c1)c1cc(-c2c(C)noc2C)ccc1C` [Compound 32], the IC50 with LNCaP/AR cells came out at 1.4 µM; in the assay on VCaP cells it was 0.98 µM; with 22RV1 cells it was 3.5 µM.

With `CCN(c1ccc(C2(C#N)CC2)cc1)c1cc(-c2c(C)noc2C)ccc1C` [Compound 111, 1-(4-((5-(3,5-dimethylisoxazol-4-)-2-methylphenyl)(ethyl)amino)phenyl)cyclopropanecarbonitrile], the values for the IC50 with LNCaP/AR cells, in the assay with 22RV1 cells and on androgen receptor (AR) were 0.14 µM, 0.27 µM and 1.6 µM, respectively.

Turning to `CCN(c1ccc(-c2c(C)noc2C)cc1)c1cc(-c2c(C)noc2C)ccc1C` [Compound 104], at androgen receptor (AR), the IC50 was found to be 1.3 µM.

Consider `CCN(c1ccc(-n2ccnc2)c(F)c1)c1cc(-c2c(C)noc2C)ccc1C` [Compound 29], for which the IC50 in the assay on LNCaP/AR cells came out at 0.49 µM; in the assay with VCaP cells, 1.22 µM; in the assay with 22RV1 cells, 5.6 µM; at androgen receptor (AR) it was 0.45 µM.

For the compound `CCN(c1ccc(-n2cnnc2)cc1)c1cc(-c2c(C)noc2C)ccc1C` [Compound 34], the IC50 in the assay with LNCaP/AR cells came to 0.95 µM; with VCaP cells, 1 µM; in the assay with 22RV1 cells, 2.58 µM.

`CCN(c1ccc(-c2ccnn2C)cc1)c1cc(-c2c(C)noc2C)ccc1C` [Compound 127] gave an IC50 against androgen receptor (AR) of 3.4 µM.

Regarding `CCN(c1ccc(Br)cc1)c1cc(-c2c(C)noc2C)ccc1C` [Compound 116], the IC50 with LNCaP/AR cells is 0.61 µM; in the assay with 22RV1 cells, 0.63 µM; against androgen receptor (AR), 4.9 µM.

Turning to `CCN(c1ccc(-n2cnc(C)c2)cc1)c1cc(-c2c(C)noc2C)ccc1C` [Compound 26], the results for the IC50 in the assay with LNCaP/AR cells, with VCaP cells and in the assay on 22RV1 cells were 1.14 µM, 1.16 µM and 4.08 µM, respectively.
